Source: patent US5166155A, “Quinoxaline-2,3-dione compounds and their preparation and use” (Novo Nordisk A/S, priority 1990, dated 1992)

Tests used:
[1] = test system: NMDA receptor/ionophor complex, allosteric modulatory (glycine) site; settings: literature; cited from earlier work
[2] = target: T1, NMDA receptor glycine site (glycine enhanced [3H]-MK-801 binding) (Rattus norvegicus, UniProt P35439); assay: Antagonism of glycine enhanced [3H]-MK-801 binding (Test 2); settings: Schild analysis; [3H]-MK-801 1 nM, glutamate 300 nM, rat cerebral membrane, 23° C., 60 min, pH 7.40
T1 construct: thawed and extensively washed rat cerebral membrane homogenate; from tissue; host or cells: rat cerebrum, extensively washed membrane homogenate
Description: The glycine antagonism is measured by determining the Ki value which represents the dissociation constant (μM) of the receptor-antagonist complex.
1 ml of thawed and extensively washed rat cerebral membrane homogenate in HEPES-NaOH (20 mM) pH 7.40 were incubated at 23° C. for 60 min. with 25 μl [^3 H]-MK-801 (1 nM final concentration), 25 μl glutamate (300 nM final concentration), test compound in concentrations corresponding to 0, 0.5, 2 and 5 times the IC50 value from the [^3 H]-glycine binding assay (test 1) for each concentration of glycine (10; 100; 1,000; 10,000 and 100,000 nM final concentration). The binding reaction was terminated by adding 5 ml of ice-cold buffer followed by rapid filtration through Whatman GF/C glass fiber filters and 5 ml wash with ice-cold buffer. Bound radioactivity was measured by scintillation counting. Ki values were determined by Schild analysis of the data using
log(dosis ration-1)=log[Inhibitor]-log(Ki).

[3] = target: T2, glycine site of the NMDA receptor complex (Rattus norvegicus, UniProt P35439); assay: [3H]-glycine binding (Test 1); settings: [3H]-glycine 10 nM, rat cerebral cortical membrane, 0° C., 10 min, pH 7.1
T2 construct: thawed rat cerebral cortical membrane homogenate; from tissue; host or cells: rat cerebral cortex, membrane homogenate
Description: The glycine site binding activity of these compounds of the present invention can be illustrated by determining their capability for displacing radioactively labelled glycine from the glycine site.
The displacement activity of the compounds may be shown by determining the IC50 value which represents the concentration (μM) which causes a displacement of 50% of the specific binding of [^3 H]-glycine.
1 ml of thawed rat cerebral cortical membrane homogenate in HEPES-Tris (5 mM) and MgCl2 (1 mM) pH 7.1 were incubated at 0° C. for 10 min. with 25 μl [^3 H]-glycine (10 nM final concentration) and the test compound and buffer. Non-specific binding was determined by incubating with D-serine (1 mM final concentration). The binding reaction was terminated by centrifugation at 15,000×g at 4° C. followed by washing of the pellet with three times 3 ml of ice-cold buffer. Bound radioactivity was measured by scintillation counting. IC50 was determined by Hill analysis of at least four concentrations of test compound.

[4] = test system: NMDA stimulated [3H]-GABA release; assay: Inhibition of NMDA stimulated [3H]-GABA release from cultured mouse cerebral cortex interneurons (Test 3); format: cell-based; settings: 3 μg/ml NMDA, 37° C.
Description: The NMDA antagonistic properties of the compounds is illustrated by determining their capability to antagonize NMDA stimulated [^3 H]-GABA release from cultured mouse cortex neurons. The NMDA antagonistic activity of the compounds may be shown by determining the IC50 value, which represents the concentration (μM) which inhibits 50% of NMDA induced [^3 H]-GABA release.
Release experiments are performed using the model described by Drejer et al. (Life Sci. 38, 2077 (1986)). To cerebral cortex interneurons cultured in petri dishes (30 mm) are added 100 μg/ml 3-vinyl-GABA one hour before the experiment in order to inhibit degradation of GABA in the neurons. 30 min. before the experiment 5 μCi [^3 H]-GABA is added to each culture and after this preloading period the cells are washed twice with HEPES buffered saline (HBS) containing 10 mM HEPES, 135 mM NaCl, 5 mM KCl, 0.6 mM MgSO4, 1.0 mM CaCl2 and 6 mM D-glucose; pH 7 and placed in a superfusion system. This system consists of a peristaltic pump continuously delivering thermostated 37° C. superfusion medium from a reservoir to the top of a slightly tilted petri dish. The cell monolayer at the bottom of the dish is covered with a piece of nylon mesh to facilitate dispersion of medium over the cell layer. The medium is continuously collected from the lower part of the dish and delivered to a fraction collector. Initially, the cells are superfused with HBS for 15 min. (flow rate 2 ml/min.). Then cells are stimulated for 30 sec. every 4 min. by changing the superfusion medium from HBS to a corresponding medium containing NMDA and antagonist according to the following scheme:
Stimulation no. 1:3 μg/ml NMDA
Stimulation no. 2:3 μg/ml NMDA+0.3 μg/ml antagonist
Stimulation no. 3:3 μg/ml NMDA+3.0 μg/ml antagonist
The release of [^3 H]-GABA in the presence of NMDA is corrected for the mean basal release before and after stimulation. The stimulated release in the presence of antagonist is expressed relative to the stimulated release by NMDA alone and the IC50 value is calculated.

NMDA receptor = settings: cited from earlier work

Structure (SMILES) | Ki [2] [nM] | IC50 [3] [nM] | IC50 [4] [nM] | other results
O=C(O)c1cc(O)c2ccc(Cl)cc2n1 [7-chlorokynurenate] | – | – | – | agonist/antagonist activity at the glycine site [1]: quite strong, but non-selective antagonists of glycine at the glycine site
N#Cc1cc2[nH]c(=O)c(=O)[nH]c2cc1[N+](=O)[O-] [CNQX, 6-cyano-7-nitroquinoxaline-2,3-dione] | – | – | – | agonist/antagonist activity at the glycine site [1]: weak antagonists
C[C@@H](N)C(=O)O [D-alanine] | – | – | – | agonist/antagonist activity at the glycine site [1]: strong agonist activity
N[C@@H]1CONC1=O [D-cycloserine] | – | – | – | agonist/antagonist activity at the glycine site [1]: partial agonists
N[C@H](CO)C(=O)O [D-serine] | – | – | – | agonist/antagonist activity at the glycine site [1]: strong agonist activity
O=C(O)C(c1ccccc1)n1c(=O)c(=O)[nH]c2ccccc21 (centres unmarked) [Example 10, 1-(1-Carboxy-1-phenylmethyl)quinoxaline-2,3(1H,4H)-dione] | – | 8000 | 2620 | –
CCCCC(C(=O)O)n1c(=O)c(=O)[nH]c2cc(Cl)c(Cl)cc21 (centres unmarked) [Example 16, 1-((1-carboxy)pentyl)-6,7-dichloroquinoxaline-2,3(1H,4H)-dione] | 100 | 409 | – | –
NC1CCN(O)C1=O (centres unmarked) [HA-966, 3-amino-1-hydroxy-2-pyrrolidone] | – | – | – | agonist/antagonist activity at the glycine site [1]: weak antagonists
NCC(=O)O [glycine] | – | – | – | effect on NMDA receptor agonist induced responses (NMDA receptor): increase NMDA receptor agonist induced responses; glycine site binding affinity [1]: high affinity binding
O=C1C[C@@H]2OCC=C3CN4CC[C@]56c7ccccc7N1[C@H]5[C@H]2[C@H]3C[C@H]46 [strychnine] | – | – | – | sensitivity of the glycine response to strychnine (NMDA receptor; cultured neurons, literature): insensitive

Further lines, with some results ahead:

Ki [2] [nM] | IC50 [3] [nM] | IC50 [4] [nM] | Structure (SMILES) | other results
162 | 350 | 163 | O=C(O)Cn1c(=O)c(=O)[nH]c2cc(Cl)c(Cl)cc21 [Example 1, 1-Carboxymethyl-6,7-dichloroquinoxaline-2,3(1H,4H)-dione] | –
127 | 544 | 505 | O=C(O)Cn1c(=O)c(=O)[nH]c2cc(Br)ccc21 [Example 3, 6-Bromo-1-carboxymethylquinoxaline-2,3(1H,4H)-dione] | –
118 | 500 | 328 | O=C(O)Cn1c(=O)c(=O)[nH]c2cc(F)c(F)cc21 [Example 4, 1-Carboxymethyl-6,7-difluoroquinoxaline-2,3(1H,4H)-dione] | –
212 | 554 | 509 | Cc1cc2[nH]c(=O)c(=O)n(CC(=O)O)c2cc1C [Example 5, 1-Carboxymethyl-6,7-dimethylquinoxaline-2,3(1H,4H)-dione] | –
3400 | 520 | 394 | O=C(O)Cn1c(=O)c(=O)[nH]c2cc(Cl)ccc21 [Example 6, 1-Carboxymethyl-6-chloroquinoxaline-2,3(1H,4H)-dione] | –
– | 2000 | – | O=C(O)Cn1c(=O)c(=O)[nH]c2cc([N+](=O)[O-])ccc21 [Example 7, 1-Carboxymethyl-6-nitroquinoxaline-2,3(1H,4H)-dione] | –
770 | 2200 | 1880 | CCCCC(C(=O)O)n1c(=O)c(=O)[nH]c2ccccc21 (centres unmarked) [Example 8, 1-((1-Carboxy)pentyl)-quinoxaline-2,3(1H,4H)-dione] | –
1900 | 5000 | 2860 | CCCC(C(=O)O)n1c(=O)c(=O)[nH]c2ccccc21 (centres unmarked) [Example 9, 1-((1-Carboxy)butyl)quinoxaline-2,3(1H,4H)-dione] | –
900 | 3000 | – | CC(C(=O)O)n1c(=O)c(=O)[nH]c2ccccc21 (centres unmarked) [Example 11, 1-((1-Carboxy)ethyl)quinoxaline-2,3(1H,4H)-dione] | –
390 | 849 | 127 | O=C(O)Cn1c(=O)c(=O)[nH]c2cc(Br)c(Br)cc21 [Example 12, 1-Carboxymethyl-6,7-dibromoquinoxaline-2,3(1H,4H)-dione] | –
– | 8000 | > 3750 | COc1ccc2c(c1)n(O)c(=O)c(=O)n2CC(=O)O [Example 13, 1-Carboxymethyl-4-hydroxy-6-methoxyquinoxalin-2,3(1H,4H)-dione] | –
49 | 587 | 2640 | CCCCCC(C(=O)O)n1c(=O)c(=O)[nH]c2cc(Br)ccc21 (centres unmarked) [Example 15, 1-((1-Carboxy)hexyl)-6-bromoquinoxaline-2,3(1H, 4H)-dione] | –
– | 7000 | – | O=C(O)Cn1c(=O)c(=O)[nH]c2ccc([N+](=O)[O-])cc21 [Example 19, 1-Carboxymethyl-7-nitroquinoxaline-2,3(1H,4H)-dione] | –
– | 852 | – | O=C(O)Cn1c(=O)c(=O)[nH]c2cc(Cl)cc(Cl)c21 [Example 22, 1-Carboxymethyl-6,8-dichloroquinoxaline-2,3(1H, 4H)-dione] | –
